# Measured values: US20140163061A1, “Methods For Reducing Blood Pressure” (FibroGen, Inc., priority 2008, published 2014)
# How the values were obtained:
# [1] = system: Nx rats (5/6 nephrectomy, hypertensive chronic kidney disease); test: Rat remnant kidney model (5/6 nephrectomy) of CKD, tail-cuff systolic blood pressure, Example 3; type: in vivo; details: mean±SEM, p<0.05 vs vehicle-treated Nx rats (195.7±24.4)
# Method: (§1) A characteristic pathophysiology found in the uremic chronic kidney disease (CKD) population is hypertension. […] (Priyadarshi et al. (2002) Kidney Int 61:542-546; Coleman et al. (2006) Proc Natl Acad Sci USA 103:5965-5970.) The surgical procedure used to generate the rat remnant kidney was performed according to modification of the procedure described by Priyadarshi et al. (supra) or according to modification of the procedure described by Tanaka et al. (2005, Lab Invest 85:1292-1307). Separate studies used either male Sprague Dawley rats (280-300 g) or female Wistar rats (220-250 g).
# Animals were divided into two groups of which one group (sham) underwent sham surgery and the other group (Nx) was subjected to 5/6 nephrectomy as follows. […] Animal body weight and mortality were closely monitored.
# Starting 35 days after surgery, Nx and sham animals were randomly divided into groups and treated with either vehicle or compound A. Compound was dosed three times per week by oral gavage at 20 or 40 mg/kg compound per dose. Blood pressure (BP) was measured using a Kent XBP1000 system (Kent Scientific Corp., Torrington, Conn.) or a Muromachi tail-cuff blood pressure system (Muromachi Kikai Co., Ltd., Tokyo, Japan), both having volume/pressure recording technology and used according to the manufacturer's instruction. […]
# [2] = system: Nx rats (5/6 nephrectomy, hypertensive chronic kidney disease); test: Nx rats treated with various HIF prolyl hydroxylase inhibitors, change in systolic blood pressure after four weeks, Example 4; type: in vivo, rat; details: 40 mg/kg oral
# Method: as §1
# Animals were divided into two groups of which one group (sham) underwent sham surgery and the other group (Nx) was subjected to 5/6 nephrectomy as follows. Animals were anesthetized under isoflurane, and a midline abdominal incision was made, followed by blunt dissection of the renal pedicles. Two or three branches of the left renal artery were ligated to infarct two thirds of the left kidney, while the right kidney underwent simultaneous nephrectomy. The infarct was verified by observing the change in kidney color. Animal body temperature was maintained constant, and warm (˜37° C.) saline (1.0 mL) was administered directly into the abdomen. Thereafter, the incision was sutured and the animal was allowed to recover and have free access to regular food and water. Animal body weight and mortality were closely monitored.
# Starting 35 days after surgery, Nx and sham animals were randomly divided into groups and treated with either vehicle or compound A. Compound was dosed three times per week by oral gavage at 20 or 40 mg/kg compound per dose. Blood pressure (BP) was measured using a Kent XBP1000 system (Kent Scientific Corp., Torrington, Conn.) or a Muromachi tail-cuff blood pressure system (Muromachi Kikai Co., Ltd., Tokyo, Japan), both having volume/pressure recording technology and used according to the manufacturer's instruction. Rats were slightly warmed under a lamp and conditioned carefully before the measurement. BP was recorded as the mean value of 3 separate measurements obtained at each session and reported herein as mean±SEM. Results are compared using 1-way analysis of variance (ANOVA) and Student-Newman-Keuls method (SigmaStat, SPSS Science, Chicago, Ill.).
# In another series of experiments, rats subjected to 5/6 nephrectomy were treated 35 days after surgery according to the dosing schedule described in Example 3 above with a HIF prolyl hydroxylase inhibitor. Individual compound selected from the group consisting of compounds A and C-K were administered by oral gavage at 8, 20, 30, or 40 mg/kg (see Table 1 and Table 2). Systolic blood pressure was recorded at day 35 (baseline) and again immediately following the last dose of compound. Table 1 and Table 2 show changes in systolic blood pressure following four weeks of oral administration of various compounds of the present invention to Nx rats.
# [3] = system: human subjects with chronic kidney disease; test: Blood pressure in human CKD subjects over a 24 hour period after oral dosing, Example 5; type: in vivo
# Method: Hypertension is a common condition in patients with chronic kidney disease. (Agarwal et al. (2005) Hypertension 46:514-520.) The effect of a compound of the present invention on blood pressure in anemic and non-anemic human subjects with advanced stage chronic kidney disease was examined. All study subjects had chronic kidney disease (CKD), defined as having a glomerular filtration rate (GFR)<59 ml/min. Some of these CKD subjects also had anemia, defined as having hemoglobin (Hb) levels<11 g/dL. Subjects were orally administered compound A or a placebo two or three times per week for four weeks. Blood pressure readings (i.e. systolic, diastolic, and mean arterial pressure) were taken at various times with a sphygmomanometer according to standard assessments. In one series of experiments, the effect of methods and medicaments of the present invention on blood pressure in anemic and non-anemic subjects with advanced stage chronic kidney disease was examined over a 24 hour period. Subjects were orally administered compound A or a placebo and blood pressure readings were taken at 1, 2, 3, 4, 6, 12, and 24 hours following treatment. […] Table 3, Table 4, and Table 5 below show hourly changes in mean arterial pressure (MAP), systolic blood pressure (SBP), and diastolic blood pressure (DBP) following oral administration of […] to human CKD subjects.
smiles,measurement,setting,value
"Cc1nc(C(=O)NCC(=O)O)c(O)c2ccc(Oc3ccccc3)cc12 [A, [(4-hydroxy-1-methyl-7-phenoxy-isoquinoline-3-carbonyl)-amino]-acetic acid]",systolic blood pressure (SBP),[1]; 20 mg/kg oral gavage three times per week,164.7±26.7 mmHg
same,systolic blood pressure (SBP),[1]; 40 mg/kg oral gavage three times per week,155.4±42.9 mmHg
same,SBP (mmHg) Change from Baseline,[2],−31.10 mmHg
same,SBP (mmHg) Change from Vehicle,[2],−40.31 mmHg
same,Mean change from Baseline Diastolic BP (mmHg),"[3]; All Subjects, 3 hour",−5.45 mmHg
same,Mean change from Baseline MAP (mmHg),"[3]; All Subjects, 3 hour",−4.35 mmHg
same,Mean change from Baseline Systolic BP (mmHg),"[3]; All Subjects, 3 hour",−2.09 mmHg
same,Mean change from Baseline Diastolic BP (mmHg),"[3]; All Subjects, 4 hour",−6.36 mmHg
same,Mean change from Baseline MAP (mmHg),"[3]; All Subjects, 4 hour",−6.60 mmHg
same,Mean change from Baseline Systolic BP (mmHg),"[3]; All Subjects, 4 hour",−7.00 mmHg
same,Mean change from Baseline Diastolic BP (mmHg),"[3]; All Subjects, 6 hour",−7.00 mmHg
same,Mean change from Baseline MAP (mmHg),"[3]; All Subjects, 6 hour",−9.18 mmHg
same,Mean change from Baseline Systolic BP (mmHg),"[3]; All Subjects, 6 hour",−13.45 mmHg
same,Mean change from Baseline Diastolic BP (mmHg),"[3]; All Subjects, 12 hour",−2.55 mmHg
same,Mean change from Baseline MAP (mmHg),"[3]; All Subjects, 12 hour",−3.29 mmHg
same,Mean change from Baseline Systolic BP (mmHg),"[3]; All Subjects, 12 hour",−4.73 mmHg
same,Mean change from Baseline Diastolic BP (mmHg),"[3]; All Subjects, 24 hour",−1.55 mmHg
same,Mean change from Baseline MAP (mmHg),"[3]; All Subjects, 24 hour",−2.55 mmHg
same,Mean change from Baseline Systolic BP (mmHg),"[3]; All Subjects, 24 hour",−4.45 mmHg
same,Mean change from Baseline Diastolic BP (mmHg),"[3]; Anemic, 3 hour",−13.67 mmHg
same,Mean change from Baseline MAP (mmHg),"[3]; Anemic, 3 hour",−11.10 mmHg
same,Mean change from Baseline Systolic BP (mmHg),"[3]; Anemic, 3 hour",−6.33 mmHg
same,Mean change from Baseline Diastolic BP (mmHg),"[3]; Anemic, 4 hour",−12.67 mmHg
same,Mean change from Baseline MAP (mmHg),"[3]; Anemic, 4 hour",−14.67 mmHg
same,Mean change from Baseline Systolic BP (mmHg),"[3]; Anemic, 4 hour",−19.00 mmHg
same,Mean change from Baseline Diastolic BP (mmHg),"[3]; Anemic, 6 hour",−10.00 mmHg
same,Mean change from Baseline MAP (mmHg),"[3]; Anemic, 6 hour",−12.33 mmHg
same,Mean change from Baseline Systolic BP (mmHg),"[3]; Anemic, 6 hour",−17.33 mmHg
same,Mean change from Baseline Diastolic BP (mmHg),"[3]; Anemic, 12 hour",−5.00 mmHg
same,Mean change from Baseline MAP (mmHg),"[3]; Anemic, 12 hour",−2.00 mmHg
same,Mean change from Baseline Systolic BP (mmHg),"[3]; Anemic, 12 hour",3.67 mmHg
same,Mean change from Baseline Diastolic BP (mmHg),"[3]; Anemic, 24 hour",−3.33 mmHg
same,Mean change from Baseline MAP (mmHg),"[3]; Anemic, 24 hour",−3.77 mmHg
same,Mean change from Baseline Systolic BP (mmHg),"[3]; Anemic, 24 hour",−5.00 mmHg
same,Mean change from Baseline Diastolic BP (mmHg),"[3]; Non-Anemic, 3 hour",−2.38 mmHg
same,Mean change from Baseline MAP (mmHg),"[3]; Non-Anemic, 3 hour",−3.81 mmHg
same,Mean change from Baseline Systolic BP (mmHg),"[3]; Non-Anemic, 3 hour",−0.50 mmHg
same,Mean change from Baseline Diastolic BP (mmHg),"[3]; Non-Anemic, 4 hour",−4.00 mmHg
same,Mean change from Baseline MAP (mmHg),"[3]; Non-Anemic, 4 hour",−3.58 mmHg
same,Mean change from Baseline Systolic BP (mmHg),"[3]; Non-Anemic, 4 hour",−2.50 mmHg
same,Mean change from Baseline Diastolic BP (mmHg),"[3]; Non-Anemic, 6 hour",−5.88 mmHg
same,Mean change from Baseline MAP (mmHg),"[3]; Non-Anemic, 6 hour",−8.00 mmHg
same,Mean change from Baseline Systolic BP (mmHg),"[3]; Non-Anemic, 6 hour",−12.00 mmHg
same,Mean change from Baseline Diastolic BP (mmHg),"[3]; Non-Anemic, 12 hour",−1.63 mmHg
same,Mean change from Baseline MAP (mmHg),"[3]; Non-Anemic, 12 hour",−3.78 mmHg
same,Mean change from Baseline Systolic BP (mmHg),"[3]; Non-Anemic, 12 hour",−7.88 mmHg
same,Mean change from Baseline Diastolic BP (mmHg),"[3]; Non-Anemic, 24 hour",−0.88 mmHg
same,Mean change from Baseline MAP (mmHg),"[3]; Non-Anemic, 24 hour",−8.00 mmHg
same,Mean change from Baseline Systolic BP (mmHg),"[3]; Non-Anemic, 24 hour",−4.25 mmHg
same,blood pressure at 1 and 2 hours post dosing,"[3]; all CKD subjects, oral, same with placebo, data not shown",small increases in blood pressure
